Source: US12492224B2, “Bicyclic peptide ligands specific for PD-L1” (BicycleTx Limited, priority 2018, dated 2025)
Where no end group is shown, it is not given here. [ ]: non-standard residue; d: D form. hArg = N=C(N)NCCCC[C@H](N)C(=O)O; Aad = N[C@@H](CCCC(=O)O)C(=O)O; Nva = CCC[C@H](N)C(=O)O

Key:
human PD-L1 = biological target: T1, human PD-L1 (Homo sapiens, UniProt Q9NZQ7); assay: PD-L1 SPR Binding Assay (Biacore), human; details: 25° C.
T1 construct: purchased Sino Biologicals or R&D systems
Description: The protein was desalted to remove uncoupled biotin using spin columns into PBS. For analysis of binding, a Biacore 3000 instrument was used utilizing a CM5 sensor chip (GE Healthcare). Streptavidin was immobilized on the chip using standard amine-coupling chemistry at 25° C. with HBS-N (10 mM HEPES, 0.15 M NaCl, pH 7.4) as the running buffer. The carboxymethyl dextran surface was activated with a 12 min injection of a 1:1 ratio of 0.4 M 1-ethyl-3-(3-dimethylaminopropyl) carbodiimide hydrochloride (EDC)/0.1 M N-hydroxy succinimide (NHS) at a flow rate of 10 μl/min. For capture of streptavidin, protein was diluted to 0.1 mg/ml in 10 mM sodium acetate (pH 4.5) and captured by injecting 70 μl onto the activated chip surface. Residual activated groups were blocked with a 7 min injection of 1 M ethanolamine (pH 8.5). Biotinylated PD-L1 stock was diluted 1:100 in HBS-N and captured on one flow cell at 5 μl/min to a level of 1000-1300 RU. Buffer was changed to PBS/0.05% Tween 20 and a dilution series of the peptides was prepared in this buffer with a final DMSO concentration of 0.5%. The top concentrations were 200 nM or 500 nM with 6 2-fold dilutions. The SPR analysis was run at 25° C. at a flow rate of Flow rate 50 μl/min with 60 seconds association and 400 seconds disassociation. Data were corrected for DMSO excluded volume effects. All data were double-referenced for blank injections and reference surface using standard processing procedures and data processing and kinetic fitting were performed using Scrubber software, version 2.0c (Biologic Software). Data were fitted using mass transport model allowing for mass transport effects where appropriate.

PD-1/PD-L1 interaction = biological target: T2, PD-1/PD-L1 interaction (Homo sapiens, UniProt Q9NZQ7); assay: PD-1/PD-L1 Blockade Bioassay (Jurkat PD-1 NFAT-luciferase / CHO-K1 PD-L1); type: cell-based; details: FIG. 1 and Table 6
T2 construct: host or cells: CHO-K1 (human PD-L1) and Jurkat (human PD-1, NFAT-luciferase)
Description: Effector Jurkat cells engineered to overexpress human PD-1 and express a luciferase gene under the NFAT response element were purchased from Promega. Target CHO-K1 cells which overexpress human PD-L1 and an engineered cell surface protein designed to activate the Jurkat's T cell receptor in an antigen-independent manner were also purchased from Promega. CHO-K1 cells were plated the day before the assay in Ham's F-12 Medium+10% FBS and were allowed to adhere to the plate. On the day of the assay, media was removed and Jurkat cells were plated with a dose response of test articles in RPMI1640 media with 1% FBS (80 μL total volume per well). […] After 6 hours of incubation at 37° C., 5% CO2, 80 μL of Bio-Glo reagent (Promega) was added to each well and allowed to equilibrate for 10 minutes at room temperature. Luminescence was read on the Clariostar plate reader (BMG LabTech). Fold induction was calculated by dividing the luminescence signal by the average of the background wells (wells with both cell lines and no test article). Data was graphed in Prism and fit to a 4-parameter logistic curve.

T1 sequence (Q9NZQ7 19-290): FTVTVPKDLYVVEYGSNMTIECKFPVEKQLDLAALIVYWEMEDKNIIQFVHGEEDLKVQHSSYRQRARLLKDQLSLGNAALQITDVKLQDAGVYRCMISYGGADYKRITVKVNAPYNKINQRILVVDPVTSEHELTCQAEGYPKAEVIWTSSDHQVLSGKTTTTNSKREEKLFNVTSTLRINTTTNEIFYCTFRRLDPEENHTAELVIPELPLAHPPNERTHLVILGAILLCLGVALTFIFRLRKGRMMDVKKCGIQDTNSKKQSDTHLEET
T2 sequence (Q9NZQ7 19-290): as above

Substance	Kd (human PD-L1) [nM]	ability to block PD-1/PD-L1 interaction between PD-1 expressing T cells and CHO-K1 stable expressing PD-L1 (PD-1/PD-L1 interaction)
Ac-DKCS[Aad]GWLTMCQKLHLCPSH-COOH [BCY11853]	17.6	–
Ac-EKCS[Aad]GWLTMCLKLHLC (cysteine pairing not given here) [BCY11826]	18.2	–
Ac-KCS[Aad]GWLTMCLKLHLC (cysteine pairing not given here) [BCY11824]	60	–
Ac-SDKCS[Aad]GWLTMCLKLHLCA [BCY11828]	16.6	–
Ac-SEKCS[Aad]GWLTMCLKLHLC (cysteine pairing not given here) [BCY11825]	28.8	–
Ac-SEKCS[Aad]GWLTMCLKLHLCPSH (cysteine pairing not given here) [BCY11831]	13.2	–
Ac-[hArg]CS[Aad]GWLTMCLKLHLC (cysteine pairing not given here) [BCY11827]	30	–
SDKCSAGWLTMCQKLH[Nle]CA [BCY10074]	36.1	–
SDKCSAGWLTMCQKLH[Nva]CA [BCY10083]	75	–
SDKCSAGWLTMCQKL[Aib]LCA [BCY10073]	15.8	–
SDKCSAGWLTMCQK[Nle]HLCA [BCY10071]	58.2	–
SDKCSAGWLTMCQK[Nva]HLCA (cysteine pairing not given here) [BCY10084]	43.2	–
SDKCSAGWLTMCQ[Nle]LHLCA [BCY10068]	54.5	–
SDKCSAGWLTMC[Chg]KLHLCA [BCY10066]	14.4	–
SDKCSAGWLT[Nle]CQKLHLCA [BCY10058]	59.7	–
SDKCS[Abu]GWLTMCQKLHLCA [BCY10055]	27.9	–
SDKCS[Aib]GWLTMCQKLHLCA [BCY10054]	31.2	–
SDKCS[Nle]GWLTMCQKLHLCA [BCY10062]	23	–
SD[HArg]CSAGWLTMCQKLHLCA [BCY10052]	22.3	–
[Ac]SDKCSAGWLTMCKQLNLCPSH [BCY10467]	–	demonstrated the ability to block PD-1/PD-L1 interaction
[Ac]SDKCSAGWLTMCKQLNLCPSH-COOH [BCY10939]	–	demonstrated the ability to block PD-1/PD-L1 interaction
[Ac]SD[HArg]CS[Nle]GWLT[hPhe]CLKL[Aib]LCPSH [BCY10959]	–	demonstrated the ability to block PD-1/PD-L1 interaction
